Data as given in patent US9624241B2 (Incyte Corporation, priority 2013, dated 2017).

Legend:
BRD4-BD1 = BRD4-BD1 (Homo sapiens (Human), UniProt O60885); assay: BRD4 AlphaScreen Assay (Example A1), BRD4-BD1; format: binding; details: Assay A1, 3.8 nM BRD4-BD1, 50 nM H4Ac4 peptide; read-out: BRD4 BD-1 enzyme IC50
Description: (§1) BRD4-BD1 and BRD4-BD2 assays were conducted in white 384-well polystyrene plate in a final volume of 20 μL for BD1 and 40 μL for BD2. Inhibitors were first serially diluted in DMSO and added to the plate wells before the addition of other reaction components. […] After plate sealing, the plate was incubated in the dark at room temperature for 75 min. before reading on a PHERAstar FS plate reader (BMG Labtech). IC50 determination was performed by fitting the curve of percent control activity versus the log of the inhibitor concentration using the GraphPad Prism 5.0 software.

BRD4-BD2 = BRD4-BD2 (Homo sapiens (Human), UniProt O60885); assay: BRD4 AlphaScreen Assay (Example A1), BRD4-BD2; format: binding; details: Assay A1, 20 nM BRD4-BD2, 50 nM H4Ac4 peptide; read-out: BRD4 BD-2 enzyme IC50
Description: as §1

Row | Structure (SMILES) | IC50 (BRD4-BD1) [nM] | IC50 (BRD4-BD2) [nM]
1 | Cc1noc(C)c1-c1ccc2c3c1OCC(c1ccccc1)n3c(=O)n2CCN1CCOCC1 (centres unmarked) [Example 10, 7-(3,5-Dimethylisoxazol-4-yl)-1-(2-morpholin-4-ylethyl)-4-phenyl-4,5-dihydroimidazo[1,5,4-de][1,4]benzoxazin-2(1H)-one] | 100 to 1000 | < 100
2 | CNc1nc2ccc(-c3c(C)noc3C)c3c2n1C(c1ccccc1)CO3 (centres unmarked) [Example 26, 7-(3,5-Dimethylisoxazol-4-yl)-N-methyl-4-phenyl-4,5-dihydroimidazo[1,5,4-de][1,4]benzoxazin-2-amine] | < 100 | < 100
3 | Cc1n[nH]cc1-c1ccc2[nH]c(=O)n3c2c1OCC3c1ccccc1 (centres unmarked) [Example 12, 7-(3-Methyl-1H-pyrazol-4-yl)-4-phenyl-4,5-dihydroimidazo[1,5,4-de][1,4]benzoxazin-2(1H)-one] | 100 to 1000 | < 100
4 | Cc1noc(C)c1-c1ccc2[nH]c(=O)n3c2c1OCC3c1ccc(F)cc1 (centres unmarked) [Example 49, 7-(3,5-Dimethylisoxazol-4-yl)-4-(4-fluorophenyl)-4,5-dihydroimidazo[1,5,4-de][1,4]benzoxazin-2(1H)-one] | < 100 | < 100
5 | Cc1noc(C)c1-c1ccc2nc(N(C)C)n3c2c1OCC3c1ccccc1 (centres unmarked) [Example 28, 7-(3,5-Dimethylisoxazol-4-yl)-N,N-dimethyl-4-phenyl-4,5-dihydroimidazo[1,5,4-de][1,4]benzoxazin-2-amine] | < 100 | < 100
6 | Cc1noc(C)c1-c1ccc2nc(N3CCCC3)n3c2c1OCC3c1ccccc1 (centres unmarked) [Example 54, 7-(3,5-Dimethylisoxazol-4-yl)-4-phenyl-2-pyrrolidin-1-yl-4,5-dihydroimidazo[1,5,4-de][1,4]benzoxazine] | < 100 | < 100
7 | Cc1noc(C)c1-c1ccc2c3c1OCC(c1ccccc1)n3c(=O)n2C (centres unmarked) [Example 2, 7-(3,5-Dimethylisoxazol-4-yl)-1-methyl-4-phenyl-4,5-dihydroimidazo[1,5,4-de][1,4]benzoxazin-2(1H)-one] | < 100 | < 100
8 | Cc1noc(C)c1-c1ccc2ncn3c2c1OCC3c1ccccc1 (centres unmarked) [Example 39, 7-(3,5-Dimethylisoxazol-4-yl)-4-phenyl-4,5-dihydroimidazo[1,5,4-de][1,4]benzoxazine] | < 100 | < 100
9 | Cc1noc(C)c1-c1ccc2nc(N3CC(O)C3)n3c2c1OCC3c1ccccc1 (centres unmarked) [Example 59, 1-[7-(3,5-Dimethylisoxazol-4-yl)-4-phenyl-4,5-dihydroimidazo[1,5,4-de][1,4]benzoxazin-2-yl]azetidin-3-ol] | < 100 | < 100
10 | Cc1noc(C)c1-c1ccc2nc(C)n3c2c1OCC3c1ccccc1 (centres unmarked) [Example 9, 7-(3,5-Dimethylisoxazol-4-yl)-2-methyl-4-phenyl-4,5-dihydroimidazo[1,5,4-de][1,4]benzoxazine] | < 100 | < 100
11 | Cn1ncc(Cl)c1-c1ccc2[nH]c(=O)n3c2c1OCC3c1ccccc1 (centres unmarked) [Example 38, 7-(4-Chloro-1-methyl-1H-pyrazol-5-yl)-4-phenyl-4,5-dihydroimidazo[1,5,4-de][1,4]benzoxazin-2(1H)-one] | 1000 to 10000 | 100 to 1000
12 | COc1cccc(C2COc3c(-c4c(C)noc4C)ccc4[nH]c(=O)n2c34)c1 (centres unmarked) [Example 6, 7-(3,5-Dimethylisoxazol-4-yl)-4-(3-methoxyphenyl)-4,5-dihydroimidazo[1,5,4-de][1,4]benzoxazin-2(1H)-one] | < 100 | < 100
13 | Cc1noc(C)c1-c1ccc2[nH]c(=O)n3c2c1OC(C)C3c1ccccc1 (centres unmarked) [Example 3, 7-(3,5-Dimethylisoxazol-4-yl)-5-methyl-4-phenyl-4,5-dihydroimidazo[1,5,4-de][1,4]benzoxazin-2(1H)-one] | < 100 | < 100
14 | Cc1noc(C)c1-c1ccc2[nH]c(=O)n3c2c1OCC3c1nccs1 (centres unmarked) [Example 21, 7-(3,5-Dimethylisoxazol-4-yl)-4-(1,3-thiazol-2-yl)-4,5-dihydroimidazo[1,5,4-de][1,4]benzoxazin-2(1H)-one] | < 100 | < 100
15 | Cc1noc(C)c1-c1ccc2nc(NC(C)CO)n3c2c1OCC3c1ccccc1 (single isomer, unassigned) [Example 31, 2-{[7-(3,5-Dimethylisoxazol-4-yl)-4-phenyl-4,5-dihydroimidazo[1,5,4-de][1,4]benzoxazin-2-yl]amino}propan-1-ol] | < 100 | < 100
16 | Cc1noc(C)c1-c1ccc2[nH]c(=O)n3c2c1OCC3C1CCCO1 (single isomer, unassigned) [Example 18B, 7-(3,5-Dimethylisoxazol-4-yl)-4-(tetrahydrofuran-2-yl)-4,5-dihydroimidazo[1,5,4-de][1,4]benzoxazin-2(1H)-one] | 100 to 1000 | < 100

Row | Structure (SMILES) | IC50 (BRD4-BD1) [nM] | IC50 (BRD4-BD2) [nM]
17 | Cc1noc(C)c1-c1ccc2[nH]c(=O)n3c2c1OCC3c1ccc(F)cc1F (centres unmarked) [Example 8, 7-(3,5-Dimethylisoxazol-4-yl)-4-(2,4-difluorophenyl)-4,5-dihydroimidazo[1,5,4-de][1,4]benzoxazin-2(1H)-one] | < 100 | < 100
18 | Cn1nccc1-c1cc(Br)c2[nH]c(=O)n3c2c1OCC3c1ccccc1 (centres unmarked) [Example 36, 9-Bromo-7-(1-methyl-1H-pyrazol-5-yl)-4-phenyl-4,5-dihydroimidazo[1,5,4-de][1,4]benzoxazin-2(1H)-one] | 100 to 1000 | < 100
19 | Cc1n[nH]c(C)c1-c1ccc2[nH]c(=O)n3c2c1OCC3c1ccccc1 (centres unmarked) [Example 11, 7-(3,5-Dimethyl-1H-pyrazol-4-yl)-4-phenyl-4,5-dihydroimidazo[1,5,4-de][1,4]benzoxazin-2(1H)-one] | 1000 to 10000 | 100 to 1000
20 | CCNc1nc2ccc(-c3c(C)noc3C)c3c2n1C(c1ccccc1)CO3 (centres unmarked) [Example 27, 7-(3,5-Dimethylisoxazol-4-yl)-N-ethyl-4-phenyl-4,5-dihydroimidazo[1,5,4-de][1,4]benzoxazin-2-amine] | < 100 | < 100
21 | Cn1nccc1-c1ccc2[nH]c(=O)n3c2c1OCC3c1ccccc1 (centres unmarked) [Example 35, 7-(1-Methyl-1H-pyrazol-5-yl)-4-phenyl-4,5-dihydroimidazo[1,5,4-de][1,4]benzoxazin-2(1H)-one] | 100 to 1000 | < 100
22 | Cc1noc(C)c1-c1ccc2[nH]c(=O)n3c2c1OCC3C1CCCO1 (single isomer, unassigned) [Example 18A, 7-(3,5-Dimethylisoxazol-4-yl)-4-(tetrahydrofuran-2-yl)-4,5-dihydroimidazo[1,5,4-de][1,4]benzoxazin-2(1H)-one] | 100 to 1000 | < 100
23 | Cc1noc(C)c1-c1ccc2[nH]c(=O)n3c2c1OCC3c1cccnc1 (centres unmarked) [Example 5, 7-(3,5-Dimethylisoxazol-4-yl)-4-pyridin-3-yl-4,5-dihydroimidazo[1,5,4-de][1,4]benzoxazin-2(1H)-one] | < 100 | < 100
24 | Cc1noc(C)c1-c1ccc2nc(NCCO)n3c2c1OCC3c1ccccc1 (centres unmarked) [Example 29, 2-{[7-(3,5-Dimethylisoxazol-4-yl)-4-phenyl-4,5-dihydroimidazo[1,5,4-de][1,4]benzoxazin-2-yl]amino}ethanol] | < 100 | < 100
25 | Cc1noc(C)c1-c1ccc2[nH]c(=O)n3c2c1OCC3C1CCCCC1 (centres unmarked) [Example 17, 4-Cyclohexyl-7-(3,5-dimethylisoxazol-4-yl)-4,5-dihydroimidazo[1,5,4-de][1,4]benzoxazin-2(1H)-one] | < 100 | < 100
26 | Cc1cc(-c2ccnn2C)c2c3c1[nH]c(=O)n3C(c1ccccc1)CO2 (centres unmarked) [Example 37, 9-Methyl-7-(1-methyl-1H-pyrazol-5-yl)-4-phenyl-4,5-dihydroimidazo[1,5,4-de][1,4]benzoxazin-2(1H)-one] | 100 to 1000 | < 100
27 | Cc1noc(C)c1-c1ccc2nc(NC(C)CO)n3c2c1OCC3c1ccccc1 (single isomer, unassigned) [Example 30, 2-{[7-(3,5-Dimethylisoxazol-4-yl)-4-phenyl-4,5-dihydroimidazo[1,5,4-de][1,4]benzoxazin-2-yl]amino}propan-1-ol] | < 100 | < 100
28 | Cc1noc(C)c1-c1ccc2nc(NC(C)(C)CO)n3c2c1OCC3c1ccccc1 (centres unmarked) [Example 33, 2-{[7-(3,5-Dimethylisoxazol-4-yl)-4-phenyl-4,5-dihydroimidazo[1,5,4-de][1,4]benzoxazin-2-yl]amino}-2-methylpropan-1-ol] | 1000 to 10000 | 100 to 1000
29 | Cc1noc(C)c1-c1ccc2nc(N3CCCC(O)C3)n3c2c1OCC3c1ccccc1 (centres unmarked) [Example 58, 1-[7-(3,5-Dimethylisoxazol-4-yl)-4-phenyl-4,5-dihydroimidazo[1,5,4-de][1,4]benzoxazin-2-yl]piperidin-3-ol] | < 100 | < 100
30 | Cc1noc(C)c1-c1ccc2[nH]c(=O)n3c2c1OCC3c1ccccc1OCC(=O)NCCO (centres unmarked) [Example 50, 2-{2-[7-(3,5-Dimethylisoxazol-4-yl)-2-oxo-1,2,4,5-tetrahydroimidazo[1,5,4-de][1,4]benzoxazin-4-yl]phenoxy}-N-(2-hydroxyethyl)acetamide] | < 100 | < 100
31 | Cc1noc(C)c1-c1ccc2nc(N3CCC(O)CC3)n3c2c1OCC3c1ccccc1 (centres unmarked) [Example 57, 1-[7-(3,5-Dimethylisoxazol-4-yl)-4-phenyl-4,5-dihydroimidazo[1,5,4-de][1,4]benzoxazin-2-yl]piperidin-4-ol] | < 100 | < 100
